Data reported in US20170204126A1, “MOLYBDENUM- AND TUNGSTEN-CONTAINING PRECURSORS FOR THIN FILM DEPOSITION” (L'Air Liquide, Société Anonyme pour l'Etude et …, priority 2014, published 2017).

Tests used:
[1] = Solubility of the compound in common solvents; conditions: for Solubility in alkanes and toluene: at room temperature
Method: Measurement Conditions: • Sample weight: 26.00 mg • Atmosphere: Nitrogen, 1 atmospheric pressure • Heating rate: 10° C.·min^−1 • Solubility of the compound in common solvents
Measurement Conditions: • Sample weight: 24.57 mg • Atmosphere: Nitrogen, 1 atmospheric pressure • Heating rate: 10° C.·min^−1 • Solubility of the compound in common solvents
Measurement Conditions: • Sample weight: 21.19 mg • Atmosphere: Nitrogen, 1 atmospheric pressure • Heating rate: 10° C.·min^−1 • Solubility of the compound in common solvents
Measurement Conditions: • Sample weight: 23.09 mg • Atmosphere: Nitrogen, 1 atmospheric pressure • Heating rate: 10° C.·min^−1 • Solubility of the compound in common solvents
Measurement Conditions: • Sample weight: 19.79 mg • Atmosphere: Nitrogen, 1 atmospheric pressure • Heating rate: 10° C.·min^−1 • Solubility of the compound in common solvents
Measurement Conditions: • Sample weight: 27.43 mg • Atmosphere: Nitrogen, 1 atmospheric pressure • Heating rate: 10° C.·min^−1 • Solubility of the compound in common solvents

[2] = Thermal Stability Test (storage at 50° C.); format: physicochemical
Method: The product was stored at 50° C. for 14 and 44 days. The W(OsBu)6 content after 14 days was 1.1 atomic %. The W(OsBu)6 content after 44 days was 1.2 atomic %.

CC(C)C(C)[O][W](=[O])([O]C(C)C(C)C)([O]C(C)C(C)C)[O]C(C)C(C)C (stereo not shown) [W(═O)(OCH(CH3)(CH(CH3)2))4]
Solubility in common organic solvents ([1]; hexane, acetone, chloroform, and/or toluene): miscible | Vapor pressure (Vapor pressure; at 147° C.): 1 Torr

CC(C)C[O][W](=[O])([O]CC(C)C)([O]CC(C)C)[O]CC(C)C [W(═O)(OiBu)4, W(═O)(OCH2CH(CH3)2)4]
Solubility in alkanes and in toluene ([1]; toluene up to 80° C.): very low solubility

CC(C)[O][W](=[O])([O]C(C)C)([O]C(C)C)[O]C(C)C [W(═O)(OiPr)4, W(═O)(OCH(CH3)2)4]
Solubility in alkanes ([1]; alkanes): very low solubility | Solubility in toluene ([1]; toluene at 60° C.): soluble | Vapor pressure (Vapor pressure; at 103° C.): 1 Torr

CCCC[O][W](=[O])([O]CCCC)([O]CCCC)[O]CCCC [W(═O)(OnBu)4]
Solubility in alkanes and toluene [1]: very low solubility

CCC[O][W](=[O])([O]CCC)([O]CCC)[O]CCC [W(═O)(OnPr)4]
Solubility in alkanes and toluene [1]: very low solubility

tungsten oxo sec-butoxide [W(═O)(OsBu)4]
W(OsBu)6 content after storage ([2]; stored at 50° C. for 14 days): 1.1 atomic % | W(OsBu)6 content after storage ([2]; stored at 50° C. for 44 days): 1.2 atomic %
